Where a name gives a salt, the structure may show the parent alone.
Tested on: NSCs
Description: RNAs isolated from NSCs and neurons with and without drug treatments were hybridized to Illumina HumanRef-8 BeadChip (Illumina, Inc., San Diego, Calif., performed by Microarray core facility at the Burnham Institute for Medical Research). The Illumina array data were normalized by the quantile method, and then transformed log 2 ratio values for a zero mean for expression values of each gene across all samples. The statistical and bioinformatics analyses were conducted by using R and the bioconductor package (www.bioconductor.org). The gene set enrichment analysis was conducted using the GSEA software (www.broad.mit.edu/gsea).
The comparative results are then measured by a non-parametric, running sum statistic termed the enrichment score. The enrichment score significance is assessed by 1,000 permutation tests to compute the enrichment p-value.

CCCCc1oc2ccccc2c1C(=O)c1cc(I)c(OCCN(CC)CC)c(I)c1 [Amiodarone Hydrochloride]
Nes: Acetyltransferase Activity (Enriched In Untreated Nscs): −1.239 | Nes: Amine Transmembrane Transporter Activity (Enriched In Untreated Nscs): −0.9002 | Nes: Amino Acid Transmembrane Transporter Activity (Enriched In Untreated Nscs): −0.9455 | Nes: Atp Dependent Helicase Activity (Enriched In Untreated Nscs): −1.499 | Nes: Atp Dependent Rna Helicase Activity (Enriched In Untreated Nscs): −1.626 | Nes: Atpase Activity (Enriched In Untreated Nscs): −0.8253 | Nes: Atpase Activity Coupled (Enriched In Untreated Nscs): −1.068 | Nes: Atpase Activity Coupled To Movement Of Substances (Enriched In Untreated Nscs): −0.3743 | Nes: Atpase Activity Coupled To Transmembrane Movement Of Ions (Enriched In Untreated Nscs): −0.543 | Nes: Calcium Ion Binding (Enriched In Untreated Nscs): −1.593 | Nes: Carbohydrate Binding (Enriched In Untreated Nscs): −0.9729 | Nes: Carboxylic Acid Transmembrane Transporter Activity (Enriched In Untreated Nscs): −0.8373 | Nes: Cation Binding (Enriched In Untreated Nscs): −1.033 | Nes: Chromatin Binding (Enriched In Untreated Nscs): −1.015 | Nes: Cofactor Binding (Enriched In Untreated Nscs): −0.9326 | Nes: Cytokine Activity (Enriched In Untreated Nscs): −1.381 | Nes: Cytokine Binding (Enriched In Untreated Nscs): −1.174 | Nes: Damaged Dna Binding (Enriched In Untreated Nscs): −1.1681 | Nes: Dna Dependent Atpase Activity (Enriched In Untreated Nscs): −1.2 | Nes: Dna Helicase Activity (Enriched In Untreated Nscs): −0.5542 | Nes: Double Stranded Dna Binding (Enriched In Untreated Nscs): −0.4584 | Nes: Electron Carrier Activity (Enriched In Untreated Nscs): −0.6307 | Nes: Enzyme Activator Activity (Enriched In Untreated Nscs): −1.024 | Nes: Exopeptidase Activity (Enriched In Untreated Nscs): −0.915 | Nes: Glycosaminoglycan Binding (Enriched In Untreated Nscs): −0.9127 | Nes: Growth Factor Activity (Enriched In Untreated Nscs): −1.254 | Nes: Gtp Binding (Enriched In Untreated Nscs): −0.9695 | Nes: Gtpase Activity (Enriched In Untreated Nscs): −0.811 | Nes: Guanyl Nucleotide Binding (Enriched In Untreated Nscs): −1.265 | Nes: Helicase Activity (Enriched In Untreated Nscs): −1.374 | Nes: Heparin Binding (Enriched In Untreated Nscs): −1.015 | Nes: Hormone Activity (Enriched In Untreated Nscs): −1.196 | Nes: Hydrogen Ion Transmembrane Transporter Activity (Enriched In Untreated Nscs): −1.077 | Nes: Hydrolase Activity Acting On Acid Anhydrides (Enriched In Untreated Nscs): −0.9907 | Nes: Hydrolase Activity Acting On Acid Anhydrides Catalyzing Transmembrane Movement Of Substances (Enriched In Untreated Nscs): −0.4097 | Nes: Hydrolase Activity Acting On Carbon Nitrogen But Not Peptide Bonds (Enriched In Untreated Nscs): −0.7823 | Nes: Ion Binding (Enriched In Untreated Nscs): −1.044 | Nes: Kinase Activity (Enriched In Untreated Nscs): −0.9611 | Nes: Kinase Inhibitor Activity (Enriched In Untreated Nscs): −0.8002 | Nes: Kinase Regulator Activity (Enriched In Untreated Nscs): −0.9286 | Nes: Lipase Activity (Enriched In Untreated Nscs): −1.055 | Nes: Lipid Binding (Enriched In Untreated Nscs): −1.147 | Nes: Magnesium Ion Binding (Enriched In Untreated Nscs): −1.1144 | Nes: Metallopeptidase Activity (Enriched In Untreated Nscs): −1.06 | Nes: Microtubule Binding (Enriched In Untreated Nscs): −0.7143 | Nes: N Acetyltransferase Activity (Enriched In Untreated Nscs): −1.282 | Nes: N Acyltransferase Activity (Enriched In Untreated Nscs): −1.201 | Nes: Nucleobase Nucleoside Nucleotide Kinase Activity (Enriched In Untreated Nscs): −1.417 | Nes: Nucleoside Triphosphatase Activity (Enriched In Untreated Nscs): −0.8995 | Nes: Nucleotidyltransferase Activity (Enriched In Untreated Nscs): −0.6782 | Nes: Organic Acid Transmembrane Transporter Activity (Enriched In Untreated Nscs): −0.8193 | Nes: Oxidoreductase Activity Acting On Nadh Or Nadph (Enriched In Untreated Nscs): −1.092 | Nes: Oxidoreductase Activity Acting On The Ch Ch Group Of Donors (Enriched In Untreated Nscs): −1.2992 | Nes: Pattern Binding (Enriched In Untreated Nscs): −0.8999 | Nes: Peptide Binding (Enriched In Untreated Nscs): −0.9386 | Nes: Phospholipid Binding (Enriched In Untreated Nscs): −1.255 | Nes: Phosphotransferase Activity Alcohol Group As Acceptor (Enriched In Untreated Nscs): −0.929 | Nes: Phosphotransferase Activity Phosphate Group As Acceptor (Enriched In Untreated Nscs): −1.665 | Nes: Polysaccharide Binding (Enriched In Untreated Nscs): −0.9675 | Nes: Primary Active Transmembrane Transporter Activity (Enriched In Untreated Nscs): −0.3858 | Nes: Protein Dimerization Activity (Enriched In Untreated Nscs): −1.017 | Nes: Protein Heterodimerization Activity (Enriched In Untreated Nscs): −1.3399 | Nes: Protein Homodimerization Activity (Enriched In Untreated Nscs): −0.801 | Nes: Protein Kinase Inhibitor Activity (Enriched In Untreated Nscs): −0.7805 | Nes: Protein Kinase Regulator Activity (Enriched In Untreated Nscs): −0.8809 | Nes: Protein N Terminus Binding (Enriched In Untreated Nscs): −0.5542 | Nes: Pyrophosphatase Activity (Enriched In Untreated Nscs): −1.053 | Nes: Ras Gtpase Binding (Enriched In Untreated Nscs): −0.9567 | Nes: Receptor Activity (Enriched In Untreated Nscs): −1.044 | Nes: Receptor Binding (Enriched In Untreated Nscs): −1.0604 | Nes: Receptor Signaling Protein Serine Threonine Kinase Activity (Enriched In Untreated Nscs): −0.7954 | Nes: Rhodopsin Like Receptor Activity (Enriched In Untreated Nscs): −1.049 | Nes: Rna Binding (Enriched In Untreated Nscs): −0.6659 | Nes: Rna Dependent Atpase Activity (Enriched In Untreated Nscs): −1.8058 | Nes: Rna Helicase Activity (Enriched In Untreated Nscs): −1.68 | Nes: Signal Sequence Binding (Enriched In Untreated Nscs): −0.8286 | Nes: Structural Constituent Of Ribosome (Enriched In Untreated Nscs): −0.6343 | Nes: Transferase Activity Transferring Acyl Groups (Enriched In Untreated Nscs): −0.9146 | Nes: Transferase Activity Transferring Hexosyl Groups (Enriched In Untreated Nscs): −0.8814 | Nes: Transferase Activity Transferring Phosphorus Containing Groups (Enriched In Untreated Nscs): −1.002 | Nes: Transmembrane Receptor Activity (Enriched In Untreated Nscs): −1.132 | Nes: Tubulin Binding (Enriched In Untreated Nscs): −1.169 | Nes: Udp Glycosyltransferase Activity (Enriched In Untreated Nscs): −0.9459 | Nes: Acid Amino Acid Ligase Activity (enriched in treated NSCs): 0.7777 | Nes: Actin Binding (enriched in treated NSCs): 0.7455 | Nes: Actin Filament Binding (enriched in treated NSCs): 1.029 | Nes: Active Transmembrane Transporter Activity (enriched in treated NSCs): 0.8495 | Nes: Adenyl Nucleotide Binding (enriched in treated NSCs): 0.9485 | Nes: Adenyl Ribonucleotide Binding (enriched in treated NSCs): 0.9696 | Nes: Anion Transmembrane Transporter Activity (enriched in treated NSCs): 1.216 | Nes: Atp Binding (enriched in treated NSCs): 0.8813 | Nes: Calmodulin Binding (enriched in treated NSCs): 0.7204 | Nes: Carbon Oxygen Lyase Activity (enriched in treated NSCs): 0.4048 | Nes: Cation Channel Activity (enriched in treated NSCs): 0.9023 | Nes: Cation Transmembrane Transporter Activity (enriched in treated NSCs): 1.013 | Nes: Cysteine Type Endopeptidase Activity (enriched in treated NSCs): 1.621 | Nes: Cysteine Type Peptidase Activity (enriched in treated NSCs): 1.575 | Nes: Deoxyribonuclease Activity (enriched in treated NSCs): 1.357 | Nes: Endonuclease Activity (enriched in treated NSCs): 0.5289

Reference: patent publication US20120244567A1, “HUMAN EMBRYONIC STEM CELLS FOR HIGH THROUGHOUT DRUG SCREENING” (BUCK INSTITUTE FOR RESEARCH ON AGING, priority 2009, published 2012)
